The numbers were not newly measured in EP3865125A1, “PHARMACEUTICAL COMPOSITION COMPRISING ELIGLUSTAT” (Kashiv Biosciences, LLC, priority 2020, dated 2021), which cites them from elsewhere.

For data set [1] the following is noted: dogs, 50-mg/kg dose.
The conditions of data set [2]: mice, 50-mg/kg dose.
The conditions of data set [3]: rats, 50-mg/kg dose.
Test in data set [4]: not given
The source holds these as a separate data set.

Read-outs that look alike come from different tables or passages of the source.

In the case of `CCCCCCCC(=O)N[C@H](CN1CCCC1)[C@H](O)c1ccc2c(c1)OCCO2` [Eliglustat], the solubility entry is “high solubility”. Besides, the oral bioavailability in data set [1] is 42%. Besides, the oral bioavailability in data set [2] is 8%. The oral bioavailability in data set [3] is on record as 39%. In addition, the absolute bioavailability in data set [4] (CERDELGA capsule, CHMP assessment report) is 4.49% ± 4.13%. For the same compound, in data set [4] (multiple oral doses of 84 mg twice daily in EMs), the “systemic exposure AUC0-12 at steady state compared to after the first dose (AUC0-inf)” value was “up to 2 fold”. Besides, the oral bioavailability result in data set [4] (oral route, significant first pass metabolism) was “less than 5%”.
